Results published in ChEMBL document CHEMBL1201862, “PubChem BioAssay data set” (2004).
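Growth conditions: 96-well plates. Treatment: test compound, 48 hours, 5 concentrations. Analysis: linear interpolation between bracketing concentrations; unreached endpoints set to highest concentration. Here, GI50 denotes the concentration required for 50% inhibition of growth.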 Active and inactive are the calls of the source. Rule as the data show it: active = GI50 up to about 1.1 µM and inactive = higher.

Assays:
Test in all cases: NCI anticancer screen, dose series, 48 h
SK-MEL-2 = system: SK-MEL-2
KM12 = system: KM12
M19-MEL = system: M19-MEL
RXF 393 = system: RXF 393
SF-295 = system: SF-295
SF-268 = system: SF-268
KM-20L2 = system: KM-20L2
DMS-273 = system: DMS-273
HOP-62 = system: HOP-62
MOLT-4 = system: MOLT-4
CCRF-CEM = system: CCRF-CEM
LXFL 529 = system: LXFL 529
SR = system: SR
HCT-116 = system: HCT-116
A549 = system: A549
OVCAR-3 = system: OVCAR-3
SW-620 = system: SW-620
SF-539 = system: SF-539
U-251 = system: U-251
Malme-3M = system: Malme-3M
SN12C = system: SN12C
NCI-H460 = system: NCI-H460
SK-OV-3 = system: SK-OV-3
RPMI-8226 = system: RPMI-8226
ACHN = system: ACHN
OVCAR-4 = system: OVCAR-4
SK-MEL-5 = system: SK-MEL-5
HCC 2998 = system: HCC 2998
NCI-H226 = system: NCI-H226
SNB-75 = system: SNB-75
HCT-15 = system: HCT-15
DMS-114 = system: DMS-114
TK-10 = system: TK-10
LOX IMVI = system: LOX IMVI
786-0 = system: 786-0
EKVX = system: EKVX
NCI-H23 = system: NCI-H23
HT-29 = system: HT-29
NCI-H522 = system: NCI-H522
M14 = system: M14
HOP-92 = system: HOP-92
DLD-1 = system: DLD-1
HL-60 = system: HL-60
OVCAR-5 = system: OVCAR-5
OVCAR-8 = system: OVCAR-8
K562 = system: K562
XF498 = system: XF498
CAKI-1 = system: CAKI-1
UACC-257 = system: UACC-257
SK-MEL-28 = system: SK-MEL-28
COLO 205 = system: COLO 205
IGROV-1 = system: IGROV-1
UACC-62 = system: UACC-62
SNB-78 = system: SNB-78
A498 = system: A498
UO-31 = system: UO-31
SNB-19 = system: SNB-19

Measured: GI50

NC(=O)CCCC(NCc1c2ccccc2nc2ccccc12)C(=O)O (stereo unspecified)
inactive: SK-MEL-2 90.6 µM | KM12 29.2 µM | M19-MEL 45.2 µM | RXF 393 51.8 µM | SF-295 83.4 µM | SF-268 41.6 µM | KM-20L2 43.5 µM | DMS-273 28.2 µM | HOP-62 > 100 µM | MOLT-4 17.9 µM | CCRF-CEM 22.2 µM | LXFL 529 39.9 µM | SR 25.9 µM | HCT-116 > 10 µM | A549 56.1 µM | OVCAR-3 37.9 µM | SW-620 50.9 µM | SF-539 32.7 µM | U-251 > 100 µM | Malme-3M 77.1 µM | SN12C 41.5 µM | NCI-H460 39.5 µM | SK-OV-3 > 100 µM | RPMI-8226 22.8 µM | ACHN 49.8 µM | OVCAR-4 11.1 µM | SK-MEL-5 94.6 µM | HCC 2998 50.9 µM | NCI-H226 > 100 µM | SNB-75 58.2 µM | DMS-114 37.2 µM | TK-10 55 µM | LOX IMVI 30.4 µM | 786-0 42.7 µM | EKVX 56.6 µM | NCI-H23 53.1 µM | HT-29 36.2 µM | NCI-H522 22.6 µM | M14 42.4 µM | HOP-92 27.5 µM | DLD-1 35.4 µM | HL-60 20.5 µM | OVCAR-5 > 100 µM | OVCAR-8 42.7 µM | K562 26.6 µM | XF498 21 µM | CAKI-1 27.5 µM | UACC-257 85.1 µM | SK-MEL-28 > 100 µM | COLO 205 56.4 µM | IGROV-1 48.5 µM
36.5 µM: HCT-15

COC(=O)C1CC2CC(=NNC(N)=O)CC2C1 (stereo unspecified)
inactive: SK-MEL-2 > 100 µM | KM12 > 100 µM | UACC-62 > 100 µM | M19-MEL > 100 µM | RXF 393 > 100 µM | SF-295 > 100 µM | SF-268 > 100 µM | DMS-273 > 100 µM | HOP-62 > 100 µM | MOLT-4 > 100 µM | CCRF-CEM > 100 µM | LXFL 529 > 100 µM | HCT-116 > 100 µM | A549 > 100 µM | OVCAR-3 > 100 µM | SW-620 > 100 µM | SF-539 > 100 µM | U-251 > 100 µM | Malme-3M > 100 µM | SN12C > 100 µM | NCI-H460 > 100 µM | SK-OV-3 > 100 µM | RPMI-8226 > 100 µM | ACHN > 100 µM | OVCAR-4 > 100 µM | SK-MEL-5 > 100 µM | HCC 2998 > 100 µM | SNB-75 > 100 µM | DMS-114 > 100 µM | SNB-78 > 100 µM | TK-10 > 100 µM | LOX IMVI > 100 µM | A498 > 100 µM | 786-0 > 100 µM | EKVX > 100 µM | UO-31 > 100 µM | NCI-H23 > 100 µM | HT-29 > 100 µM | SNB-19 > 100 µM | NCI-H522 > 100 µM | M14 > 100 µM | HOP-92 > 100 µM | DLD-1 > 100 µM | HL-60 > 100 µM | OVCAR-5 > 100 µM | OVCAR-8 > 100 µM | K562 > 100 µM | XF498 > 100 µM | CAKI-1 > 100 µM | UACC-257 > 100 µM | SK-MEL-28 > 100 µM | COLO 205 > 100 µM | IGROV-1 > 100 µM
> 100 µM: HCT-15

O=C1CC2(CCC3=C(O2)c2ccccc2NC(=O)C3)C(=O)c2ccccc2N1 (stereo unspecified)
inactive: SK-MEL-2 > 100 µM | KM12 > 100 µM | UACC-62 > 100 µM | M19-MEL > 100 µM | RXF 393 > 100 µM | SF-295 > 100 µM | SF-268 > 100 µM | KM-20L2 > 100 µM | DMS-273 > 100 µM | HOP-62 > 100 µM | MOLT-4 > 100 µM | CCRF-CEM > 100 µM | LXFL 529 > 100 µM | SR > 10 µM | HCT-116 > 100 µM | A549 > 100 µM | OVCAR-3 > 100 µM | SW-620 > 100 µM | SF-539 > 100 µM | U-251 > 100 µM | Malme-3M > 100 µM | SN12C > 100 µM | NCI-H460 > 100 µM | RPMI-8226 87.1 µM | ACHN > 100 µM | OVCAR-4 > 100 µM | SK-MEL-5 > 100 µM | NCI-H226 > 100 µM | SNB-75 22.2 µM | DMS-114 > 100 µM | SNB-78 > 100 µM | TK-10 > 100 µM | LOX IMVI > 100 µM | 786-0 > 100 µM | EKVX > 100 µM | UO-31 41.9 µM | NCI-H23 > 100 µM | HT-29 > 100 µM | SNB-19 98.6 µM | NCI-H522 > 100 µM | M14 > 100 µM | HL-60 > 100 µM | OVCAR-5 > 100 µM | OVCAR-8 > 100 µM | K562 48.1 µM | XF498 > 100 µM | SK-MEL-28 > 100 µM | COLO 205 > 100 µM | IGROV-1 > 100 µM
> 100 µM: HCT-15
